Source: patent publication US20240018146A1, “COMPOSITIONS AND METHODS OF USING THE SAME FOR TREATMENT OF NEURODEGENERATIVE AND MITOCHONDRIAL DISEASE” (MITOKININ, INC., priority 2020, published 2024)
Where two headings read alike, the source gives them in different places.

Key:
[1] = tested on: HeLa MKYP cells; assay: Cell death measured by DAPI staining, with 1 μM FCCP/oligomycin or no toxin (no FO); assay type: cell-based; conditions: for Max cell death at 25 μM compound, 1 uM FO (%) / Cell death at 25 μM (no FO) (%): 25 μM compound
Description: EP-0035985, EP-0037821, EP-0038098, and EP-0038099 in the presence of 1 μM FCCP/oligomycin or with no toxin (no FO) for 6 hrs. H2O2 treatment was performed as a control for cell death as measured by DAPI staining.
EP-0035985, EP-0038461, EP-0038463, and EP-0038503 in the presence of 1 μM FCCP/oligomycin or with no toxin (no FO) for 6.5 hrs. H2O2 treatment was performed as a control for cell death as measured by DAPI staining.
EP-0035985, EP-0038504, EP-0038508, and EP-0038521 in the presence of 1 μM FCCP/oligomycin or with no toxin (no FO) for 6.5 hrs. H2O2 treatment was performed as a control for cell death as measured by DAPI staining.
EP-0035985, EP-0038461, EP-0038463, EP-0038503, EP-0038504, EP-0038508, and EP-0038521 in the presence of 1 μM FCCP/oligomycin or with no toxin (no FO) for 6.5 hrs. H2O2 treatment was performed as a control for cell death as measured by DAPI staining.

[2] = tested on: HeLa MKYP cells; assay: Human mitophagy assay (HeLa mKeima assay, FACS); assay type: cell-based
Description: Briefly, HeLa MKYP cells were plated at 10,000 cells/well in 96 well plates along with compounds at various concentrations. Following 16 hrs of incubation, cells were treated with 1 uM FCCP/oligomycin for 6 hours, then analyzed via FACS for the presence of mitochondria in lysosomes (as determined by an emissions spectrum shift from the pH-sensitive mtKeima tag).
Briefly, HeLa cells expressing a mitophagy indicator (mtKeima) protein were treated with […] of FCCP and Oligomycin followed by the specified dose of compound, then analyzed by FACS to quantify the percentage of cells undergoing mitophagy.

[3] = read-out: Mitophagy induction EC50
[4] = Homo sapiens, HeLa, read-out: Mitophagy induction EC50
[5] = Homo sapiens, HeLa, HeLa mKeima assay, read-out: Mitophagy EC50 (HeLa mKeima assay)

SMILES	Highest safe dose (cytotoxicity; no FO; safe means DAPI+ <20%) [1] [µM]	Max % death with 1 μM FO [1] [%]	EC50 [2, 3] [µM]	EC50 [2, 4] [µM]	Max cell death at 25 μM compound, 1 uM FO (%) [1] [%]	Cell death at 25 μM (no FO) (%) [1] [%]	EC50 [2, 5] [µM]
FC1COCCC1[C@H]1COc2ccccc2[C@@H]1Nc1ncnc2[nH]c(C(F)(F)F)cc12 (single isomer, unassigned) [EP-0041322]	25.0	11.0	> 25	–	–	–	–
FC1COCCC1[C@H]1COc2ccccc2[C@@H]1Nc1ncnc2[nH]c(C(F)(F)F)cc12 (single isomer, unassigned) [EP-0041323]	25.0	9.2	11	–	–	–	–
FC1COCCC1[C@H]1COc2ccccc2[C@@H]1Nc1ncnc2[nH]c(C(F)(F)F)cc12 (single isomer, unassigned) [EP-0041324]	25.0	10.4	12.3	–	–	–	–
FC1COCCC1[C@H]1COc2ccccc2[C@@H]1Nc1ncnc2[nH]c(C(F)(F)F)cc12 (single isomer, unassigned) [EP-0041325]	25.0	5.5	18.8	–	–	–	–
CC(C)(O)C1CN([C@H]2COc3ccccc3[C@@H]2Nc2ncnc3[nH]c(C(F)(F)F)cc23)C1 (single isomer, unassigned) [EP-0041490]	25.0	3.4	–	> 25	–	–	–
COC[C@@H]1CCCN1[C@H]1COc2ccccc2[C@@H]1Nc1ncnc2[nH]c(C(F)(F)F)cc12 (single isomer, unassigned) [EP-0041491]	25.0	3.7	–	10.2	–	–	–
COC[C@H]1CCCN1[C@H]1COc2ccccc2[C@@H]1Nc1ncnc2[nH]c(C(F)(F)F)cc12 (single isomer, unassigned) [EP-0041492]	25.0	8.3	–	1.78	–	–	–
C[S@](=N)(=O)C1CN([C@H]2COc3ccccc3[C@@H]2Nc2ncnc3[nH]c(C(F)(F)F)cc23)C1 (single isomer, unassigned) [EP-0041495]	25.0	2.9	2.52	–	–	–	–
C[S@](=N)(=O)C1CN([C@H]2COc3ccccc3[C@@H]2Nc2ncnc3[nH]c(C(F)(F)F)cc23)C1 (single isomer, unassigned) [EP-0041497]	25.0	2.6	22	–	–	–	–
C[S@@](=N)(=O)C1CN(C2COc3ccccc3C2Nc2ncnc3[nH]c(C(F)(F)F)cc23)C1 (single isomer, unassigned) [EP-0041498]	25.0	3.7	–	> 25	–	–	–
COC[C@@H]1CCN(C2COc3ccccc3C2Nc2ncnc3[nH]c(C4CC4)cc23)C1 (single isomer, unassigned) [EP-0041515]	25.0	5.6	5.06	–	–	–	–
FC(F)(F)c1cc2c(N[C@H]3c4ccccc4OC[C@@H]3N3CCC4(COC4)C3)ncnc2[nH]1 (single isomer, unassigned) [EP-0041516]	25.0	11.8	–	3.24	–	–	–
OC[C@H]1CN([C@H]2COc3ccccc3[C@@H]2Nc2ncnc3[nH]c(C(F)(F)F)cc23)CCO1 (single isomer, unassigned) [EP-0041558]	25.0	10.6	1.42	–	–	–	–
OC[C@H]1CN([C@H]2COc3ccccc3[C@@H]2Nc2ncnc3[nH]c(C(F)(F)F)cc23)CCO1 (single isomer, unassigned) [EP-0041559]	25.0	3.7	10.3	–	–	–	–
OC[C@@H]1CN([C@H]2COc3ccccc3[C@@H]2Nc2ncnc3[nH]c(C(F)(F)F)cc23)CCO1 (single isomer, unassigned) [EP-0041585]	25.0	6.6	–	16.1	–	–	–
OC[C@@H]1CN([C@H]2COc3ccccc3[C@@H]2Nc2ncnc3[nH]c(C(F)(F)F)cc23)CCO1 (single isomer, unassigned) [EP-0041586]	25.0	10.7	9.59	–	–	–	–
c1ccc2c(c1)OCC(N1CC3CCOC3C1)C2Nc1ncnc2[nH]c(C3CC3)cc12 (single isomer, unassigned) [EP-0041667]	25.0	3.1	> 25	–	–	–	–
c1ccc2c(c1)OCC(N1CC3CCOC3C1)C2Nc1ncnc2[nH]c(C3CC3)cc12 (single isomer, unassigned) [EP-0041669]	25.0	2.5	> 25	–	–	–	–
Fc1ccc2c(c1)CC[C@@H](N1CCOCC1)[C@@H]2Nc1ncnc2[nH]c(C3CC3)cc12 [EP-0039747]	25.0	24.4	–	9.31	24.4	12.9	9.31
N#Cc1cn([C@@H]2CCc3ccccc3[C@@H]2Nc2ncnc3[nH]c(C(F)(F)F)cc23)cn1 [EP-0039748]	25.0	6.5	–	8.07	–	–	–
FC(F)(F)c1cc2c(N[C@H]3c4ccccc4C[C@@H]3N3C[C@H]4COC[C@H]4C3)ncnc2[nH]1 [EP-0039754]	25.0	17.7	–	> 25	–	–	–
c1ccc2c(c1)C[C@H](N1C[C@H]3COC[C@H]3C1)[C@H]2Nc1ncnc2[nH]c(C3CC3)cc12 [EP-0040075]	25.0	6.5	–	> 25	–	–	–
FC(F)(F)c1cc2c(N[C@H]3c4ccccc4OC[C@@H]3N3CCOCC3)ncnc2[nH]1 [EP-0040078]	25.0	18.5	–	1.9	18	5.92	1.77
FC(F)(F)c1cc2c(N[C@H]3c4ccccc4OC[C@H]3N3CCOCC3)ncnc2[nH]1 [EP-0040084]	25.0	3.7	–	15.6	–	–	–
OC[C@@H]1CCCN1[C@H]1CCc2ccccc2[C@@H]1Nc1ncnc2[nH]c(C3CC3)cc12 [EP-0040085]	8.3	38.1	–	> 25	–	–	–
FC(F)(F)c1cc2c(N[C@H]3c4ccccc4CC[C@@H]3N3CCCOCC3)ncnc2[nH]1 [EP-0040139]	25.0	8.5	–	3.66	–	–	–
c1ccc2c(c1)OC[C@@H](N1CCOCC1)[C@H]2Nc1ncnc2[nH]c(C3CC3)cc12 [EP-0040140]	25.0	11.1	–	8.71	–	–	–
FC(F)(F)c1cc2c(N[C@@H]3c4ccccc4OC[C@H]3N3CCOCC3)ncnc2[nH]1 [EP-0040252]	25.0	9.1	–	1.11	–	–	–
